Structures are written as SMILES. Read-outs that look alike come from different tables or passages of the source. Bounds are passed on as bounds.

The test system of data set [1] is MCF7 cells. Conditions: 24 hours. The protocol:
Inventors hypothesized that possible mechanism by which DPI inhibits CSC propagation is by inducing mitochondrial reactive oxygen species (ROS) production. To test this hypothesis, inventors determined the effects of DPI on mitochondrial ROS production, over the range of 5 to 50 nM. Briefly, production of superoxide by mitochondria was measured by the MitoSOX™ Red mitochondrial superoxide indicator (ThermoFisher Sci., M36008). 3×10^5 MCF7 cells/well were plated in 6-well plates in complete media supplemented with 10% heat-inactivated FBS. The next day, cells were treated with DPI (5, 50 nM) or Rotenone (0.5 μM) for 24 hours. Vehicle alone (DMSO) for control cells were processed in parallel. At least 30,000 events were recorded by FACS using Fortessa (BD Bioscience). Three biological replicates (repeats) were analyzed in independent experiments.

The test system of data set [2] is MCF7 cells. Briefly: cells. Conditions: Homo sapiens, MCF7, 120 h, read-out: IC-50, reduction of CD44+/CD24- cell population.
Description: Inventors examined specific cell surface markers, namely fluorescent antibody probes directed against CD44 and CD24. The CD44+/CD24-cell population represents a CSC-enriched fraction. 1×10^5 MCF7 cells were plated in 6-well plates in complete media supplemented with 10% heat-inactivated FBS. […] Vehicle alone (DMSO) control cells were processed in parallel. Briefly, 30,000-50,000 live cells, as identified by 7-AAD dye staining, were analyzed for CD24/CD44 expression. Inventors used CD24 (IOTest CD24-PE, Beckman Coulter) and CD44 (APC mouse Anti-Human CD44, BD Pharmingen) antibodies for fluorescence activated cell sorting (FACS) analysis, using the BD LSR Fortessa (BD Bioscience). […] One-way ANOVA was used with Bonferroi's multiple comparisons test.
In data set [3] the test system is MCF7 cells. The following applies: five days of treatment, concentration as high as 33 nM.
Description: (§3) The inventors used a Sulphorhodamine (SRB) assay, which is based on the measurement of cellular protein content. After treatment for five days in 96-well plates, cells were fixed with 10% trichloroacetic acid (TCA) for 1 hour in the cold room, and were dried overnight at room temperature. Then, cells were incubated with SRB for 15 min, washed twice with 1% acetic acid, and air dried for at least 1 hour. Finally, the protein-bound dye was dissolved in a 10 mM Tris, pH 8.8 solution and read using the plate reader at 540-nm.
The test system of another data set is hTERT-BJ1 cells. Conditions: five days of incubation, up to 100 nM.
Data set [4] has as its system MCF7 cells. Briefly: cells. Conditions: Homo sapiens. As for the experimental part: Cells were grown for 5 days and maintained in a humidified incubator at 37° C. at an atmospheric pressure in 5% (v/v) carbon dioxide/air.
The test system of data set [5] is MCF7 cells. The experiment in a line: cells. The text has this: (§1) A number of methods may be used for functional validation, including, for example, metabolic flux analysis, mammosphere assays, viability assays, and antibiotic (anti-bacterial and/or anti-fungal) activity. The inventors determined real-time oxygen consumption rates (OCR) and extracellular acidification rates (ECAR) in MCF7 cells using the Seahorse Extracellular Flux (XF96) analyzer (Seahorse Bioscience, Mass., USA). Briefly, MCF7 cells were maintained in DMEM supplemented with 10% FBS (fetal bovine serum), 2 mM GlutaMAX, and 1% Pen-Strep. 8,000 cells per well were seeded into XF96-well cell culture plates, and incubated overnight at 37° C. in a 5% CO2 humidified atmosphere. The next day, cells were washed in pre-warmed XF assay media (for OCR measurement, XF assay media was supplemented with 10 mM glucose, 1 mM Pyruvate and adjusted at pH 7.4). Cells were then maintained in 175 μL/well of XF assay media at 37° C., in a non-CO2 incubator for 1 hour. During incubation, 25 μL of 80 mM glucose, 9 μM oligomycin, 1M 2-deoxyglucose (for ECAR measurement) and 25 μL of 10 μM oligomycin, 9 μM FCCP, 10 μM rotenone, 10 μM antimycin A (for OCR measurement) in XF assay media was loaded into the injection ports of the XFe-96 sensor cartridge. During the experiment, the instrument injected these inhibitors into the wells at a given time point, while ECAR/OCR was measured continuously. ECAR and OCR measurements were normalized by protein content (Sulphorhodamine B assay). Data sets were analyzed by XFe-96 software, using one-way ANOVA and Student's t-test calculations. All experiments were performed in triplicate.
It should be appreciated that numerous methods are known for functional validation, and that persons of skill in the art may select one or more depending on the validation needs (e.g., other assays that measure or approximate mitochondrial function).
(§2) Given DPI's high potency, inventors assessed its ability to rapidly affect cell metabolism.
To assess the reversibility of DPI's effects, MCF7 cells were first subjected to DPI treatment for 24 hours. Then, DPI was removed (“wash-out”) and the cells were cultured for an additional 24 hours, to allow recovery.
The inventors also examined the effects of long-term treatment with DPI on cells.

The next data set concerns C. elegans. Conditions: during response to oxidative stress; cited from earlier work.
For data set [6], the system named is MCF7 cells. Conditions: 10 nM, 1 month culture.
For data set [7], the system named is MCF7 cells.
Description: as §1, §2

The subject of data set [8] is MCF7 cells. Conditions: 500 nM DPI, 72 hours. The protocol:
Assays were performed according to the manufacturer's protocol.

Data set [9] deals with MCF7 cells. The following applies: various concentrations, 1, 3 or 5 days, normalized to vehicle. The protocol:
To confirm that the observed increase in ECAR corresponded to L-lactate production, L-lactate levels were measured directly using the ISCUS^flex Microdialysis Analyser (M Dialysis Inc., MA, USA). Culture media were collected, centrifuged and analysed with the ISCUS^flex Microdialysis Analyzer after treatment of MCF7 cells with various concentrations of DPI for 1, 3 or 5 days. Calibration of the instrument was performed by samples provided by the manufacturer. Then L-lactate levels were measured and normalized to samples taken from MCF7 cells treated with vehicle only.

Description for hTERT-BJ1 cells: as §3

As usually defined, the inhibition is the percentage by which the read-out fell short of the control. As for `c1ccc2c(c1)[I+]c1ccccc1-2` [DPI, Diphenyleneiodonium chloride], the “mitochondrial ROS production” value in the data set with MCF7 cells [1] (5 nM, relative to vehicle) was “failed to induce any detectable mitochondrial ROS production”; in the data set on MCF7 cells [1] (50 nM, versus positive control Rotenone) it was “induced the same amount of mitochondrial ROS as 500 nM Rotenone”. Moreover, the IC50 with MCF7 cells [2] was found to be 10 nM; with MCF7 cells [4] (MCF7, 120 h, read-out: IC-50, CSC propagation (mammosphere formation)), 3.23 nM; in the data set with MCF7 cells [5] (Homo sapiens, MCF7, 1 h, read-out: IC-50, inhibition of basal respiration), 50 nM. Also, the “toxicity / cell viability in MCF7 cells” value with MCF7 cells [3] is “little or no toxicity”. Besides, the “toxic effects / cell viability in normal fibroblasts (hTERT-BJ1)” value in the data set with hTERT-BJ1 cells was “little or no toxic effects”. Moreover, the inhibition at 0.005 µM with MCF7 cells [4] (MCF7, read-out: inhibition of mammosphere formation) is greater than 50%. Further, the “effect on OCR” value in the data set on MCF7 cells [5] (2.5 nM, 24-hour treatment) is recorded as “little or no effect”. For the same compound, in the data set with MCF7 cells [5] (5 nM, 24-hour treatment), the “reduction of basal respiration” value was roughly 50%. The “decrease of basal respiration rate” value with MCF7 cells [5] (10 nM, 24-hour treatment) is listed as roughly 85%. The “reduction in ATP production (ATP-linked respiration)” value with MCF7 cells [5] (10 nM, 24-hour treatment) is reported as greater than 90%. For the same compound, the “inhibition of mitochondrial respiration after long-term treatment” value in the data set on MCF7 cells [5] (1 month culture with 10, 25 and 50 nM) was “near complete inhibition of respiration”. For the same compound, in the data set on C. elegans, the “accumulation of lipofuscin (aging-associated marker)” value was “prevents the accumulation of lipofuscin”. In the data set on MCF7 cells [6], the “morphology and density of the cells” value is “remains unchanged”. In the data set on MCF7 cells [7] (2.5 nM, 24 hours of treatment), the “effect on ECAR” value is recorded as “little or no effect”. In addition, the increase of glycolysis is given as roughly 2 fold in the data set with MCF7 cells [7] (10 nM, 24 hours of treatment) and “effectively doubled” with MCF7 cells [7] (one-hour treatment, 5 to 100 nM). Also, the “cell death (number of attached cells by DNA content)” value in the data set with MCF7 cells [8] was “did not significantly induce any cell death”. Besides, the “reduction of ATP levels” value in the data set on MCF7 cells [8] is given as greater than 80%. In the data set with MCF7 cells [9], the L-lactate production result was “nearly doubling the amount of lactate produced”.
